Laboratory results reported in the supplement of paper PMC10307832.

How the values were obtained:
Test in all cases: relative viability (nuclei count vs DMSO), 5 days (fraction); higher = more cells survive
FH535 + Trametinib = compound: CC1=C(C=CC(=C1)[N+](=O)[O-])NS(=O)(=O)C2=C(C=CC(=C2)Cl)Cl [FH535] + CC(=O)Nc1cccc(-n2c(=O)n(C3CC3)c(=O)c3c(Nc4ccc(I)cc4F)n(C)c(=O)c(C)c32)c1 [Trametinib] (partner 0.02 µM)
Outline: (§1)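 The day after seeding in 1536-well plates, lung cancer cell lines were treated by pin tool with a single drug, or with a fixed anchor-drug dose together with five library-drug doses (not always all listed) in √10 steps. After 5 days, a combined fix-and-stain solution (final 0.05% Triton X-100, 1% formaldehyde, 1 ug/ml Hoechst) was added. Nuclei counted on 4× images gave relative viability as treated counts over vehicle counts, reported as the median of duplicate plates.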

FH535 + Pictilisib = compound: CC1=C(C=CC(=C1)[N+](=O)[O-])NS(=O)(=O)C2=C(C=CC(=C2)Cl)Cl [FH535] + CS(=O)(=O)N1CCN(Cc2cc3nc(-c4cccc5[nH]ncc45)nc(N4CCOCC4)c3s2)CC1 [Pictilisib] (partner 1 µM)
Outline: as §1

FH535 + Crizotinib = compound: CC1=C(C=CC(=C1)[N+](=O)[O-])NS(=O)(=O)C2=C(C=CC(=C2)Cl)Cl [FH535] + C[C@@H](Oc1cc(-c2cnn(C3CCNCC3)c2)cnc1N)c1c(Cl)ccc(F)c1Cl [Crizotinib] (partner 1 µM)
Outline: as §1

FH535 + AZD7762 = compound: CC1=C(C=CC(=C1)[N+](=O)[O-])NS(=O)(=O)C2=C(C=CC(=C2)Cl)Cl [FH535] + NC(=O)Nc1cc(-c2cccc(F)c2)sc1C(=O)N[C@H]1CCCNC1 [AZD7762] (partner 0.2 µM)
Outline: as §1

FH535 + Olaparib = compound: CC1=C(C=CC(=C1)[N+](=O)[O-])NS(=O)(=O)C2=C(C=CC(=C2)Cl)Cl [FH535] + O=C(c1cc(Cc2n[nH]c(=O)c3ccccc23)ccc1F)N1CCN(C(=O)C2CC2)CC1 [Olaparib] (partner 8 µM)
Outline: as §1

Row | Cell Line | relative viability (FH535 + Trametinib; first compound 0.04 µM) | relative viability (FH535 + Trametinib; first compound 0.1265 µM) | relative viability (FH535 + Trametinib; first compound 0.4 µM) | relative viability (FH535 + Trametinib; first compound 1.265 µM) | relative viability (FH535 + Pictilisib; first compound 0.04 µM) | relative viability (FH535 + Pictilisib; first compound 0.1265 µM) | relative viability (FH535 + Pictilisib; first compound 0.4 µM) | relative viability (FH535 + Pictilisib; first compound 1.265 µM) | relative viability (FH535 + Crizotinib; first compound 0.04 µM) | relative viability (FH535 + Crizotinib; first compound 0.1265 µM) | relative viability (FH535 + Crizotinib; first compound 0.4 µM) | relative viability (FH535 + Crizotinib; first compound 1.265 µM) | relative viability (FH535 + AZD7762; first compound 0.04 µM) | relative viability (FH535 + AZD7762; first compound 0.1265 µM) | relative viability (FH535 + AZD7762; first compound 0.4 µM) | relative viability (FH535 + AZD7762; first compound 1.265 µM) | relative viability (FH535 + Olaparib; first compound 0.04 µM) | relative viability (FH535 + Olaparib; first compound 0.1265 µM) | relative viability (FH535 + Olaparib; first compound 0.4 µM) | relative viability (FH535 + Olaparib; first compound 1.265 µM)
1 | A-427 | 0.712 | 0.752 | 0.675 | 0.61 | 0.642 | 0.83 | 0.551 | 0.685 | 0.929 | 0.908 | 0.784 | 0.721 | 0.768 | 0.795 | 0.768 | 0.622 | 0.799 | 0.774 | 0.731 | 0.513
2 | IA-LM |  |  |  |  | 0.328 | 0.396 | 0.389 | 0.303 | 0.867 | 0.771 | 0.645 | 0.633 |  |  |  |  | 0.768 | 0.732 | 0.712 | 0.503
3 | ChaGo-K-1 | 0.871 | 0.896 | 0.742 | 0.503 | 0.55 | 1.07 | 0.658 | 0.436 | 1.05 | 1.19 | 1.09 | 0.708 | 0.797 | 0.927 | 0.771 | 0.729 | 0.384 | 0.404 | 0.403 | 0.286
4 | NCI-H520 | 0.703 | 0.691 | 0.696 | 0.684 | 0.274 | 0.201 | 0.303 | 0.279 | 0.716 | 0.893 | 0.803 | 0.754 |  |  |  |  | 0.319 | 0.277 | 0.268 | 0.314
5 | SK-LU-1 | 0.476 | 0.49 | 0.501 | 0.418 | 0.503 | 0.568 | 0.487 | 0.4 | 1.15 | 0.793 | 0.849 | 0.703 |  |  |  |  | 0.48 | 0.439 | 0.456 | 0.407
6 | ABC-1 |  |  |  |  | 0.601 | 0.878 | 0.702 | 0.735 | 1.19 | 0.866 | 1.2 | 0.618 | 0.706 | 0.664 | 0.756 | 0.549 | 0.705 | 0.896 | 0.94 | 0.37
7 | COR-L 105 | 0.483 | 0.404 | 0.422 | 0.444 | 0.27 | 0.385 | 0.384 | 0.394 | 0.751 | 0.885 | 0.792 | 0.86 |  |  |  |  | 0.693 | 0.699 | 0.747 | 0.648
8 | NCI-H2009 | 0.306 | 0.316 | 0.251 | 0.24 | 0.753 | 0.87 | 0.724 | 0.763 | 1.1 | 1.06 | 0.903 | 0.677 |  |  |  |  | 0.666 | 0.652 | 0.662 | 0.552
9 | NCI-H1703 |  |  |  |  | 0.195 | 0.213 | 0.257 | 0.219 | 0.922 | 0.63 | 0.589 | 0.408 | 0.127 | 0.136 | 0.109 | 0.132 | 0.429 | 0.461 | 0.486 | 0.392
10 | NCI-H2023 | 0.542 | 0.641 | 0.598 | 0.44 | 0.209 | 0.226 | 0.252 | 0.231 | 0.761 | 0.639 | 0.676 | 0.723 |  |  |  |  | 0.48 | 0.5 | 0.474 | 0.368
